Measured values taken from patent US4207320A, “Amino-substituted imidazo[1,2-a:3,4-a']diquinolin-15-ium salts compositions and method of use” (Warner-Lambert Company, priority 1978, dated 1980).

What was measured:
C. albicans [1] = assay: Broth Tube Dilution Test, minimal inhibitory concentration; format: cell-based; settings: Candida albicans, 28° C., at 72
Method: (§1) Minimal Inhibitory Concentration (MIC) The test compounds are serially diluted in pure dimethylformamide, giving a concentration of 4000, 800, 160 and 32 micrograms/milliliters(μg./ml.).A further dilution (typically a 2-fold or a 5-fold dilution) is made from each of the above serial dilutions into tubes containing 9.4 ml. BactoSabouraud Dextrose Broth, resulting in a set of broth tubes with specific final drug concentrations for which activity is to be determined. Each of the broth tubes is then inoculated with 0.5 ml. of a stock suspension of the same test organism. After inoculation, all of the tubes are incubated at 28° C. The tubes are read 48 hours to 7 days post inoculation, depending on the organism being tested. The lowest concentration of test compound at which growth of the organism is prevented in the broth tubes is taken as the minimal inhibitory concentration (MIC). The Broth+Serum Dilution Test is performed in the same manner as the Broth Tube Dilution Test except that the liquid medium consists of 50% BactoSabouraud Dextrose Broth and 50% normal calf serum from citrated blood.

C. stellatoidea [2] = assay: as above; format: cell-based; settings: Candida albicans, 28° C., at 72
Method: as §1

C. tropicalis [3] = assay: as above; format: cell-based; settings: Candida tropicalis, 28° C., at 72
Method: as §1

Geotrichum candidum [4] = assay: as above; format: cell-based; settings: 28° C., at 72
Method: as §1

C. krusei [5] = assay: as above; format: cell-based, Candida krusei; settings: Pichia kudriavzevii, 28° C., at 72
Method: as §1

C. guilliermondi [6] = assay: as above; format: cell-based, Candida gulliermondi; settings: Candida, 28° C., at 72
Method: as §1

C. parapsilosis [7] = assay: as above; format: cell-based, Candida parapsilosis; settings: Lodderomyces parapsilosis, 28° C., at 72
Method: as §1

C. albicans [8] = assay: Broth Tube Dilution Test, minimal fungicidal concentration; format: cell-based; settings: Candida albicans, 28° C., 24 hours later
Method: as §1, with “The” for “Minimal Inhibitory Concentration (MIC) The”, “blood. Minimal Fungicidal Concentrations (MFC) For a determination of fungicidal activity, the broth tubes described above are incubated at 28° C. for 48 hours and then serially diluted 1:100 into Bacto-Sabouraud Dextrose Broth and incubated again for 48 hours. The tubes are then read and the lowest concentration of test compound for which there is no growth of the organism in the broth tube is taken as the minimal fungicidal concentration (MFC).” for “blood.”

C. stellatoidea [9] = assay: as above; format: cell-based; settings: Candida albicans, 28° C., 24 hours later
Method: as §1, with “The” for “Minimal Inhibitory Concentration (MIC) The”, “blood. Minimal Fungicidal Concentrations (MFC) For a determination of fungicidal activity, the broth tubes described above are incubated at 28° C. for 48 hours and then serially diluted 1:100 into Bacto-Sabouraud Dextrose Broth and incubated again for 48 hours. The tubes are then read and the lowest concentration of test compound for which there is no growth of the organism in the broth tube is taken as the minimal fungicidal concentration (MFC).” for “blood.”

C. tropicalis [10] = assay: as above; format: cell-based; settings: Candida tropicalis, 28° C., 24 hours later
Method: as §1, with “The” for “Minimal Inhibitory Concentration (MIC) The”, “blood. Minimal Fungicidal Concentrations (MFC) For a determination of fungicidal activity, the broth tubes described above are incubated at 28° C. for 48 hours and then serially diluted 1:100 into Bacto-Sabouraud Dextrose Broth and incubated again for 48 hours. The tubes are then read and the lowest concentration of test compound for which there is no growth of the organism in the broth tube is taken as the minimal fungicidal concentration (MFC).” for “blood.”

Geotrichum candidum [11] = assay: as above; format: cell-based; settings: 28° C., 24 hours later
Method: as §1, with “The” for “Minimal Inhibitory Concentration (MIC) The”, “blood. Minimal Fungicidal Concentrations (MFC) For a determination of fungicidal activity, the broth tubes described above are incubated at 28° C. for 48 hours and then serially diluted 1:100 into Bacto-Sabouraud Dextrose Broth and incubated again for 48 hours. The tubes are then read and the lowest concentration of test compound for which there is no growth of the organism in the broth tube is taken as the minimal fungicidal concentration (MFC).” for “blood.”

C. krusei [12] = assay: as above; format: cell-based, Candida krusei; settings: Pichia kudriavzevii, 28° C., 24 hours later
Method: as §1, with “The” for “Minimal Inhibitory Concentration (MIC) The”, “blood. […] The tubes are then read and the lowest concentration of test compound for which there is no growth of the organism in the broth tube is taken as the minimal fungicidal concentration (MFC).” for “blood.”

C. guilliermondi [13] = assay: as above; format: cell-based, Candida gulliermondi; settings: Candida, 28° C., 24 hours later
Method: as §1, with “The” for “Minimal Inhibitory Concentration (MIC) The”, “blood. […] The tubes are then read and the lowest concentration of test compound for which there is no growth of the organism in the broth tube is taken as the minimal fungicidal concentration (MFC).” for “blood.”

C. parapsilosis [14] = assay: as above; format: cell-based, Candida parapsilosis; settings: Lodderomyces parapsilosis, 28° C., 24 hours later
Method: as §1, with “The” for “Minimal Inhibitory Concentration (MIC) The”, “blood. […] The tubes are then read and the lowest concentration of test compound for which there is no growth of the organism in the broth tube is taken as the minimal fungicidal concentration (MFC).” for “blood.”

| Compound | MIC (C. albicans [1]) [µg/mL] | MIC (C. stellatoidea [2]) [µg/mL] | MIC (C. tropicalis [3]) [µg/mL] | MIC (Geotrichum candidum [4]) [µg/mL] | MIC (C. krusei [5]) [µg/mL] | MIC (C. guilliermondi [6]) [µg/mL] | MIC (C. parapsilosis [7]) [µg/mL] | MFC (C. albicans [8]) [µg/mL] | MFC (C. stellatoidea [9]) [µg/mL] | MFC (C. tropicalis [10]) [µg/mL] | MFC (Geotrichum candidum [11]) [µg/mL] | MFC (C. krusei [12]) [µg/mL] | MFC (C. guilliermondi [13]) [µg/mL] | MFC (C. parapsilosis [14]) [µg/mL] |
| --- | --- | --- | --- | --- | --- | --- | --- | --- | --- | --- | --- | --- | --- | --- |
| CC(C)(C)c1ccc2c(ccc3c[n+]4c5ccc(N6CCCC6)cc5ccc4n32)c1.[Cl-] [Example 7, 10-(1,1-Dimethylethyl)-3-(1-pyrrolidinyl)imidazo[1,2-a:3,4-a']diquinolin-15-ium Chloride] | 10 | 2.61 | > 10 | 10 | 10 | 2.5 | 10 | 10 | 5 | > 10 | > 10 | 10 | 2.5 | > 10 |
| CCc1ccc2c(ccc3c[n+]4c5ccc(N6CCCC6)cc5ccc4n32)c1.[Cl-] [Example 26, 10-Ethyl-3-(1-pyrrolidinyl)imidazo[1,2-a: 3,4-a']diquinolin-15-ium chloride] | 2.5 | 1.25 | 10 | 5 | 2.5 | 10 | 5 | 2.5 | 5 | > 10 | > 10 | 2.5 | > 10 | > 10 |
